Measured values: PubChem BioAssay AID2060882 (Molecular Pharmacology Branch, DTP, NCI, 2025)
Values joined by “and” are separate entries in the source; they are usually repeats but may differ in a detail not shown here. Equal values may be shown once.

System: 898857-211-R-J1-PDC complex spheroids, growth % test/control
Experiment: Anticancer human tumor 898857-211-R-J1-PDC patient-derived melanoma cell line growth inhibition [RAS]
Conditions: for viability, T/C: stronger effect = lower value
In short: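 Tumour cells grown as complex spheroids with HUVEC endothelial cells and mesenchymal stem cells, treated with RAS pathway inhibitor combinations. Each agent spans half-log steps from near clinical Cmax, or 10 microM where Cmax is unknown.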

[1] = curve of first compound, second compound 0.000949 µM
[2] = curve of first compound, second compound 0.003 µM
[3] = curve of first compound, second compound 0.00949 µM
[4] = curve of first compound, second compound 0.03 µM
[5] = curve of first compound, second compound 0.0949 µM
[6] = curve of first compound, second compound 0.3 µM
[7] = second compound 0.000949 µM, first compound 0.0316 µM
[8] = second compound 0.000949 µM, first compound 0.1 µM
[9] = second compound 0.000949 µM, first compound 0.316 µM
[10] = second compound 0.000949 µM, first compound 1 µM
[11] = second compound 0.000949 µM, first compound 3.16 µM
[12] = second compound 0.000949 µM, first compound 10 µM
[13] = second compound 0.003 µM, first compound 0.0316 µM
[14] = second compound 0.003 µM, first compound 0.1 µM
[15] = second compound 0.003 µM, first compound 0.316 µM
[16] = second compound 0.003 µM, first compound 1 µM
[17] = second compound 0.003 µM, first compound 3.16 µM
[18] = second compound 0.003 µM, first compound 10 µM
[19] = second compound 0.00949 µM, first compound 0.0316 µM
[20] = second compound 0.00949 µM, first compound 0.1 µM
[21] = second compound 0.00949 µM, first compound 0.316 µM
[22] = second compound 0.00949 µM, first compound 1 µM
[23] = second compound 0.00949 µM, first compound 3.16 µM
[24] = second compound 0.00949 µM, first compound 10 µM
[25] = second compound 0.03 µM, first compound 0.0316 µM
[26] = second compound 0.03 µM, first compound 0.1 µM
[27] = second compound 0.03 µM, first compound 0.316 µM
[28] = second compound 0.03 µM, first compound 1 µM
[29] = second compound 0.03 µM, first compound 3.16 µM
[30] = second compound 0.03 µM, first compound 10 µM
[31] = second compound 0.0949 µM, first compound 0.0316 µM
[32] = second compound 0.0949 µM, first compound 0.1 µM
[33] = second compound 0.0949 µM, first compound 0.316 µM
[34] = second compound 0.0949 µM, first compound 1 µM
[35] = second compound 0.0949 µM, first compound 3.16 µM
[36] = second compound 0.0949 µM, first compound 10 µM
[37] = second compound 0.3 µM, first compound 0.0316 µM
[38] = second compound 0.3 µM, first compound 0.1 µM
[39] = second compound 0.3 µM, first compound 0.316 µM
[40] = second compound 0.3 µM, first compound 1 µM
[41] = second compound 0.3 µM, first compound 3.16 µM
[42] = second compound 0.3 µM, first compound 10 µM
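Further: spheroids exposed to compound for seven days before readout.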
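Wherever viability, T/C is given: 100% = DMSO vehicle control wells.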

C[C@@H](NC(=O)c1ncnc(N)c1Cl)c1ncc(C(=O)Nc2cc(C(F)(F)F)c(Cl)cn2)s1 + CCn1c(-c2cc(N3CCN(C)CC3)cnc2C(C)OC)c2c3cc(ccc31)-c1csc(n1)CC(NC(=O)C1CC1C)C(=O)N1CCCC(N1)C(=O)OCC(C)(C)C2
IC50 [1]: 1690 nM
IC50 [2]: 1340 nM
IC50 [3]: 1300 nM
IC50 [4]: 1090 nM
IC50 [5]: 1360 nM
IC50 [6]: 1150 nM
viability, T/C [7]: 131%
viability, T/C [8]: 98.4%
viability, T/C [9]: 85%
viability, T/C [10]: 59.8%
viability, T/C [11]: 38.7%
viability, T/C [12]: 20%
viability, T/C [13]: 106%
viability, T/C [14]: 109%
viability, T/C [15]: 71%
viability, T/C [16]: 55.2%
viability, T/C [17]: 40.7%
viability, T/C [18]: 22%
viability, T/C [19]: 107%
viability, T/C [20]: 99.5%
viability, T/C [21]: 83.6%
viability, T/C [22]: 53.7%
viability, T/C [23]: 33.9%
viability, T/C [24]: 21.2%
viability, T/C [25]: 107%
viability, T/C [26]: 99.3%
viability, T/C [27]: 78.8%
viability, T/C [28]: 50.3%
viability, T/C [29]: 33.4%
viability, T/C [30]: 21.7%
viability, T/C [31]: 121%
viability, T/C [32]: 106%
viability, T/C [33]: 72.6%
viability, T/C [34]: 52.2%
viability, T/C [35]: 38%
viability, T/C [36]: 19.6%
viability, T/C [37]: 108%
viability, T/C [38]: 87.5%
viability, T/C [39]: 65.9%
viability, T/C [40]: 56.8%
viability, T/C [41]: 33.6%
viability, T/C [42]: 16.9%

CCc1c2c(nc3ccc(O)cc13)-c1cc3c(c(=O)n1C2)COC(=O)[C@]3(O)CC
viability, T/C (compound 0.000949 µM): 96.5% [middle of 4 runs]
viability, T/C (compound 0.003 µM): 65.1% [middle of 4 runs]
viability, T/C (compound 0.00949 µM): 30.4% [middle of 4 runs]
viability, T/C (compound 0.03 µM): 10.2% [middle of 4 runs]
viability, T/C (compound 0.0949 µM): 7.84% [middle of 4 runs]
viability, T/C (compound 0.3 µM): 7.49% [middle of 4 runs]
IC50 (curve of compound): 4.92 nM [middle of 4 runs]

O=C(c1ccc(F)c(F)c1Nc1ccc(I)cc1F)N1CC(O)([C@@H]2CCCCN2)C1
viability, T/C (compound 0.00316 µM): 56.5% [middle of 4 runs]
viability, T/C (compound 0.01 µM): 40.4% (2×) and 26.7% and 33.1%
viability, T/C (compound 0.0316 µM): 28.9% [middle of 4 runs]
viability, T/C (compound 0.1 µM): 20.3% [middle of 4 runs]
viability, T/C (compound 0.316 µM): 18.5% [middle of 4 runs]
viability, T/C (compound 1 µM): 13.4% [middle of 4 runs]

CCC(CC)c1cc(NC2CCC(N)C2)n2nccc2n1 (centres undefined) + CCn1c(-c2cc(N3CCN(C)CC3)cnc2C(C)OC)c2c3cc(ccc31)-c1csc(n1)CC(NC(=O)C1CC1C)C(=O)N1CCCC(N1)C(=O)OCC(C)(C)C2
IC50 [1]: 594 nM
IC50 [2]: 589 nM
IC50 [3]: 609 nM
IC50 [4]: 571 nM
IC50 [5]: 615 nM
IC50 [6]: 604 nM
viability, T/C [7]: 113%
viability, T/C [8]: 100%
viability, T/C [9]: 87.1%
viability, T/C [10]: 19.7%
viability, T/C [11]: 0.45%
viability, T/C [12]: 0.75%
viability, T/C [13]: 95.1%
viability, T/C [14]: 94%
viability, T/C [15]: 82%
viability, T/C [16]: 22.8%
viability, T/C [17]: 0.27%
viability, T/C [18]: 0.25%
viability, T/C [19]: 92.2%
viability, T/C [20]: 105%
viability, T/C [21]: 84.4%
viability, T/C [22]: 23.6%
viability, T/C [23]: 0.8%
viability, T/C [24]: 0.2%
viability, T/C [25]: 102%
viability, T/C [26]: 89.5%
viability, T/C [27]: 80.9%
viability, T/C [28]: 21.2%
viability, T/C [29]: 0.38%
viability, T/C [30]: 0.27%
viability, T/C [31]: 109%
viability, T/C [32]: 102%
viability, T/C [33]: 86.3%
viability, T/C [34]: 23.8%
viability, T/C [35]: 0.81%
viability, T/C [36]: 0.19%
viability, T/C [37]: 104%
viability, T/C [38]: 105%
viability, T/C [39]: 84.8%
viability, T/C [40]: 22.9%
viability, T/C [41]: 0.32%
viability, T/C [42]: 0.26%

CC(Nc1ccc2c(c1)OCCn1cc(N3C(=O)OCC3C(F)F)nc1-2)C(N)=O (centres undefined) + CCn1c(-c2cc(N3CCN(C)CC3)cnc2C(C)OC)c2c3cc(ccc31)-c1csc(n1)CC(NC(=O)C1CC1C)C(=O)N1CCCC(N1)C(=O)OCC(C)(C)C2
IC50 [1]: > 10000 nM
IC50 [2]: > 10000 nM
IC50 [3]: 6620 nM
IC50 [4]: 9250 nM
IC50 [5]: 9600 nM
IC50 [6]: 8390 nM
viability, T/C [7]: 102%
viability, T/C [8]: 90.3%
viability, T/C [9]: 96%
viability, T/C [10]: 73.8%
viability, T/C [11]: 66%
viability, T/C [12]: 53.2%
viability, T/C [13]: 93.4%
viability, T/C [14]: 95.7%
viability, T/C [15]: 83.6%
viability, T/C [16]: 76.4%
viability, T/C [17]: 73.3%
viability, T/C [18]: 52.2%
viability, T/C [19]: 82.5%
viability, T/C [20]: 80.4%
viability, T/C [21]: 80.2%
viability, T/C [22]: 73.5%
viability, T/C [23]: 63%
viability, T/C [24]: 42.7%
viability, T/C [25]: 103%
viability, T/C [26]: 91.5%
viability, T/C [27]: 80.9%
viability, T/C [28]: 72.6%
viability, T/C [29]: 68.5%
viability, T/C [30]: 45.5%
viability, T/C [31]: 106%
viability, T/C [32]: 85.1%
viability, T/C [33]: 95.3%
viability, T/C [34]: 80.5%
viability, T/C [35]: 67.8%
viability, T/C [36]: 48.1%
viability, T/C [37]: 98.3%
viability, T/C [38]: 99.3%
viability, T/C [39]: 84.2%
viability, T/C [40]: 71.7%
viability, T/C [41]: 66.1%
viability, T/C [42]: 46.4%
